How the values were obtained:
Assay type in all cases: cell-based
human TLR9 = target: T1, human TLR9 (Homo sapiens, UniProt Q9NR96); assay: TLR9 inhibition reporter assay (HEK-Blue cells, SEAP reporter, ODN2006 stimulation); conditions: HEK-Blue cells overexpressing human TLR9, SEAP reporter, ODN2006 5 nM
T1 construct: host or cells: HEK-Blue cells
T1 sequence (Q9NR96 26-1032): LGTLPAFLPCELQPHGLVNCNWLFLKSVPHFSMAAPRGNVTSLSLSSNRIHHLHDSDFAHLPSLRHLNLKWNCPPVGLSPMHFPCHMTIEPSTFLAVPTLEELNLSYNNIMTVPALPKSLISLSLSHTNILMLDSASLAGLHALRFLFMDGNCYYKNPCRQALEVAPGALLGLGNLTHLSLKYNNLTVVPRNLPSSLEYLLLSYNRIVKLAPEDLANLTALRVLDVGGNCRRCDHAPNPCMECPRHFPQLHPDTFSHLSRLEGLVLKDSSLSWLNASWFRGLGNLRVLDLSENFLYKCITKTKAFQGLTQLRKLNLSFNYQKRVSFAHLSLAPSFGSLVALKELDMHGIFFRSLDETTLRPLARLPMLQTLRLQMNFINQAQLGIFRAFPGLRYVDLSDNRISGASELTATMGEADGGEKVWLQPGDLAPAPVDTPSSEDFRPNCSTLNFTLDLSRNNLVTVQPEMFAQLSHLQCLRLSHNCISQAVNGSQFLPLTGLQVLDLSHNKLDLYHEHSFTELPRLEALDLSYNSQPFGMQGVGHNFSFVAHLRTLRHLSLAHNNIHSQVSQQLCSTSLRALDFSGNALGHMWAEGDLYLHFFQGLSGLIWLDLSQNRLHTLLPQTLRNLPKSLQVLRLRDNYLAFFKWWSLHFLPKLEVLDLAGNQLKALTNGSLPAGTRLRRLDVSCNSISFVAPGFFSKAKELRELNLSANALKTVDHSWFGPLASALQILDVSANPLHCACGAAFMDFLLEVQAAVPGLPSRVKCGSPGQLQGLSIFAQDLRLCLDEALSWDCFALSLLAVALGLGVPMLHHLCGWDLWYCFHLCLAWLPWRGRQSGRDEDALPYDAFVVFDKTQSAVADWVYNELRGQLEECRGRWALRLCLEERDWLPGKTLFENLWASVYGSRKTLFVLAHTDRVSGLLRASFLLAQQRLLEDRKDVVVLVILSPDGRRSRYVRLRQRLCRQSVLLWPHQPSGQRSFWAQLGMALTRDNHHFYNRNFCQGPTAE
Summary of the method: (§1)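 SEAP readout after 22 h agonist exposure at 37 °C; final agonist levels were 7.5 μM gardiquimod (TLR7), 15.9 μM R848 (TLR8) and 5 nM ODN2006 (TLR9). Inhibitors, spanning 0.05 nM to 50 μM final, were applied 30 min beforehand.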

human TLR8 = target: T2, human TLR8 (Homo sapiens, UniProt Q9NR97); assay: TLR8 inhibition reporter assay (HEK-Blue cells, SEAP reporter, R848 stimulation); conditions: HEK-Blue cells overexpressing human TLR8, SEAP reporter, R848 15.9 μM
T2 construct: host or cells: HEK-Blue cells
T2 sequence (Q9NR97 27-1041): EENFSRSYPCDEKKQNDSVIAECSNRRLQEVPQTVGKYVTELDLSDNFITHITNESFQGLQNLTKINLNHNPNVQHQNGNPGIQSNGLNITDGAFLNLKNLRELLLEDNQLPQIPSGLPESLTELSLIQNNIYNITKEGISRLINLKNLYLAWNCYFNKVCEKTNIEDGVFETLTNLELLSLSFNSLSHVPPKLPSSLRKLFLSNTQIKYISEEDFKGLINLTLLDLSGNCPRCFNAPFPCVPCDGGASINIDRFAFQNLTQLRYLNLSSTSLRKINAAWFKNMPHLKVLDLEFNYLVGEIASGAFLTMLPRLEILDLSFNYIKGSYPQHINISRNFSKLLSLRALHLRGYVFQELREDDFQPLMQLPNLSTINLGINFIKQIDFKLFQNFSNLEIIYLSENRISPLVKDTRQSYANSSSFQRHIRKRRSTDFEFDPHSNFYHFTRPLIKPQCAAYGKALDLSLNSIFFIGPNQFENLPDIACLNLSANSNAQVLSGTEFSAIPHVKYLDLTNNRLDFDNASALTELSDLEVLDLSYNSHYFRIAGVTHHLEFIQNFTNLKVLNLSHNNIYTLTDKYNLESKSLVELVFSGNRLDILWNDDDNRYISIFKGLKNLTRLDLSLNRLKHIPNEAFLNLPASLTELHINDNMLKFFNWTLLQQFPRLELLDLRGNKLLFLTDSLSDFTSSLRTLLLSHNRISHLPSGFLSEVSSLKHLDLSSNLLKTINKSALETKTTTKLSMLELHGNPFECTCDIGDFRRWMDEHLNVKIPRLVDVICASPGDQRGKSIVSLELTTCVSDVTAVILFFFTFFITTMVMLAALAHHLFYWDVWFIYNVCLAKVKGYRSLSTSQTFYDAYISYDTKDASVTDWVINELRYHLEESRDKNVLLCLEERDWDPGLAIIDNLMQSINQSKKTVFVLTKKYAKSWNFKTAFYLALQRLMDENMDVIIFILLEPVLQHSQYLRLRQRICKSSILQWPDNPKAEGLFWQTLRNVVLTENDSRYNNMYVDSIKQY
Summary of the method: as §1

human TLR7 = target: T3, human TLR7 (Homo sapiens, UniProt Q9NYK1); assay: TLR7 inhibition reporter assay (HEK-Blue cells, SEAP reporter, gardiquimod stimulation); conditions: HEK-Blue cells overexpressing human TLR7, SEAP reporter, gardiquimod 7.5 μM
T3 construct: host or cells: HEK-Blue cells
T3 sequence (Q9NYK1 27-1049): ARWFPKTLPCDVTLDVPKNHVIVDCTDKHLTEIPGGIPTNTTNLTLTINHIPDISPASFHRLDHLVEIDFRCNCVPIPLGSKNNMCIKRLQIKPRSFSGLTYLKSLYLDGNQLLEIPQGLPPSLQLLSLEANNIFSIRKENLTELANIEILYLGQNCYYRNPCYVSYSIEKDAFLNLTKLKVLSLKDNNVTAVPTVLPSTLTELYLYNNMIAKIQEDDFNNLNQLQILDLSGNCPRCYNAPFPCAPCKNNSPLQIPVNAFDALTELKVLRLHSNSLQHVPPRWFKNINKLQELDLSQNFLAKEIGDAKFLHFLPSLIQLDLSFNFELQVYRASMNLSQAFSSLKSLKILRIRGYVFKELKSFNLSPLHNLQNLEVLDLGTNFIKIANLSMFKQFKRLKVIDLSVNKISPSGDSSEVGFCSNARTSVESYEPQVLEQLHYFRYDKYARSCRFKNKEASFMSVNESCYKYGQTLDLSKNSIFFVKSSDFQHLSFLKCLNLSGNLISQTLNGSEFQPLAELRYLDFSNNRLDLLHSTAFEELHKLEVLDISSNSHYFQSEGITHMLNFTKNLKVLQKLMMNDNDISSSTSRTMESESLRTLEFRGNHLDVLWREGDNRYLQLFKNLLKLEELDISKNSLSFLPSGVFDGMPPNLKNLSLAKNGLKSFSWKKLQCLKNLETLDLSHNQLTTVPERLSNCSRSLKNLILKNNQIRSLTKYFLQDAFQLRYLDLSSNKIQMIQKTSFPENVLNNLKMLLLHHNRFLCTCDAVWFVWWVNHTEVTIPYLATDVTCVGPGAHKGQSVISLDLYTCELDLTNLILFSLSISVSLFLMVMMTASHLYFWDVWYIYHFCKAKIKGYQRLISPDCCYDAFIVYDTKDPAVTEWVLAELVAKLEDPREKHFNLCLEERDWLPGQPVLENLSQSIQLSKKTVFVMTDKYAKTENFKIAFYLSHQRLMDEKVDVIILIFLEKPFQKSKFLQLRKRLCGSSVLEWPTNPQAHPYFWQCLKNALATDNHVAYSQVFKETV
Summary of the method: as §1

| SMILES | IC50 (human TLR9) [nM] | IC50 (human TLR8) [nM] | IC50 (human TLR7) [nM] |
| --- | --- | --- | --- |
| COCCC(=O)N1CCCC(c2ccc3[nH]c(-c4cc(C)nc(C)c4)c(C(C)C)c3c2)C1 (stereo not drawn) [Example 207] | 43500 | 97 | 24 |
| COCCC(=O)N1CCCC(c2ccc3[nH]c(-c4cc(C)nc(C)c4)c(C(C)C)c3c2)C1 (stereo not drawn) [Example 208] | > 50000 | 43 | 6 |
| CNCC(=O)N1CCCC(c2ccc3[nH]c(-c4cn5ncnc5c(C)c4C)c(C(C)C)c3c2)C1 (stereo not drawn) [Example 213] | 6520 | 5 | 3 |
| CNCC(=O)N1CCCC(c2ccc3[nH]c(-c4cn5ncnc5c(C)c4C)c(C(C)C)c3c2)C1 (stereo not drawn) [Example 214] | 5880 | 2.9 | 2 |
| Cc1cc(-c2[nH]c3ccc(C4CCCN(C(=O)C5CNC5)C4)cc3c2C(C)C)cc(C)n1 (stereo not drawn) [Example 215] | 677 | 123 | 19 |
| CN[C@@H](C)C(=O)N1CCCC(c2ccc3[nH]c(-c4cc(C)nc(C)c4)c(C(C)C)c3c2)C1 (stereo partly drawn) [Example 216] | 303 | 18 | 7 |
| CN[C@H](C)C(=O)N1CCCC(c2ccc3[nH]c(-c4cc(C)nc(C)c4)c(C(C)C)c3c2)C1 (stereo partly drawn) [Example 217] | 697 | 51 | 5 |
| Cc1cc(-c2[nH]c3ccc(C4CCCN(C(=O)[C@@H]5CCN5)C4)cc3c2C(C)C)cc(C)n1 (stereo partly drawn) [Example 218] | 699 | 80 | 15 |
| CN[C@@H](C)C(=O)N1CCCC(c2ccc3[nH]c(-c4cc(C)nc(C)c4)c(C(C)C)c3c2)C1 (stereo partly drawn) [Example 219] | 519 | 8.5 | 9 |
| Cc1cc(-c2[nH]c3ccc(C4CCCN(C(=O)[C@@H]5CCN5)C4)cc3c2C(C)C)cc(C)n1 (stereo partly drawn) [Example 220] | 339 | 11 | 1 |
| Cc1c(-c2[nH]c3ccc(C4CCCN(CC(=O)N(C)C)C4)cc3c2C(C)C)cn2ncnc2c1C (stereo not drawn) [Example 226] | 9770 | 7.4 | 17 |
| COc1ccc(-c2[nH]c3ccc(C4CCCN(CC(=O)N(C)C)C4)cc3c2C(C)C)cc1OC (stereo not drawn) [Example 227] | 3770 | 51 | 156 |
| Cc1c(-c2[nH]c3ccc(C4CCCN(CC(=O)N(C)C)C4)cc3c2C(C)C)cn2ncnc2c1C (stereo not drawn) [Example 230] | 5790 | 13 | 13 |
| Cc1cc(-c2[nH]c3ccc(C4CCCN(CC(=O)N(C)C)C4)cc3c2C(C)C)cc(C)n1 (stereo not drawn) [Example 233] | 1350 | 56 | 15 |

Now from value to compound:

| IC50 (human TLR9) [nM] | IC50 (human TLR8) [nM] | IC50 (human TLR7) [nM] | SMILES |
| --- | --- | --- | --- |
| 8000 | 11 | 3 | CNCC(=O)N1CCCC(c2ccc3[nH]c(-c4cc(OC)c5ncnn5c4)c(C(C)C)c3c2)C1 (stereo not drawn) [Example 211, 1-(3-(3-isopropyl-2-(8-methoxy-[1,2,4]triazolo[1,5-a]pyridin-6-yl)-1H-indol-5-yl)piperidin-1-yl)-2-(methylamino)ethan-1-one] |
| 8470 | 13 | 3 | CNCC(=O)N1CCCC(c2ccc3[nH]c(-c4cc(OC)c5ncnn5c4)c(C(C)C)c3c2)C1 (stereo not drawn) [Example 212] |
| 3100 | 9.2 | 2 | COc1cc(-c2[nH]c3ccc(C4CCCN(CC(=O)N(C)C)C4)cc3c2C(C)C)cn2ncnc12 (stereo not drawn) [Example 222, 2-(3-(3-isopropyl-2-(8-methoxy-[1,2,4]triazolo[1,5-a]pyridin-6-yl)-1H-indol-5-yl)piperidin-1-yl)-N,N-dimethylacetamide] |
| 7500 | 13 | 2 | CNC(=O)CN1CCCC(c2ccc3[nH]c(-c4cc(OC)c5ncnn5c4)c(C(C)C)c3c2)C1 (stereo not drawn) [Example 223] |
| 1830 | 16 | 2 | COc1cc(-c2[nH]c3ccc(C4CCCN(CC(=O)N(C)C)C4)cc3c2C(C)C)cn2ncnc12 (stereo not drawn) [Example 224] |
| 4730 | 12 | 4 | COc1cc(-c2[nH]c3ccc(C4CCCN(CC(N)=O)C4)cc3c2C(C)C)cn2ncnc12 (stereo not drawn) [Example 225] |
| 4870 | 10 | 2 | CNC(=O)CN1CCCC(c2ccc3[nH]c(-c4cc(OC)c5ncnn5c4)c(C(C)C)c3c2)C1 (stereo not drawn) [Example 228] |
| 6380 | 8.1 | 4 | COc1cc(-c2[nH]c3ccc(C4CCCN(CC(N)=O)C4)cc3c2C(C)C)cn2ncnc12 (stereo not drawn) [Example 229] |
| 17300 | 4.6 | 9 | CNC(=O)CN1CCCC(c2ccc3[nH]c(-c4cn5ncnc5c(C)c4C)c(C(C)C)c3c2)C1 (stereo not drawn) [Example 231] |
| 16300 | 8.1 | 9 | CNC(=O)CN1CCCC(c2ccc3[nH]c(-c4cn5ncnc5c(C)c4C)c(C(C)C)c3c2)C1 (stereo not drawn) [Example 232] |
| 7370 | 5.7 | 3 | COc1cc(-c2[nH]c3ccc(C4CCCN(CC(N)=O)C4)cc3c2C(C)C)cn2ncnc12 (stereo not drawn) [Example 234] |
